Measurements from ChEMBL document CHEMBL1201862, “PubChem BioAssay data set” (2004).
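Values below derive from 48-hour exposures of cells grown in 96-well plates, with endpoints linearly interpolated between the two concentrations bracketing the appropriate inhibition level. GI50 is the concentration that inhibits growth by half.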 Active and inactive are the calls of the source. Rule as the data show it: active = GI50 up to about 1.1 µM and inactive = higher.

Legend:
Assay in all cases: growth of human tumour cells (NCI), 48 h
CCRF-CEM = test system: CCRF-CEM
HCT-116 = test system: HCT-116
IGROV-1 = test system: IGROV-1
K562 = test system: K562
M14 = test system: M14
Malme-3M = test system: Malme-3M
NCI-H23 = test system: NCI-H23
SF-295 = test system: SF-295
SF-539 = test system: SF-539
SK-MEL-28 = test system: SK-MEL-28
SK-MEL-5 = test system: SK-MEL-5
SR = test system: SR
SW-620 = test system: SW-620
TK-10 = test system: TK-10
UACC-257 = test system: UACC-257
UO-31 = test system: UO-31
NCI-H522 = test system: NCI-H522
RXF 393 = test system: RXF 393

Measured: GI50

CC/C=C\C/C=C\C/C=C\CCCCCCCC(=O)OCC
inactive: CCRF-CEM > 100 µM | HCT-116 > 100 µM | IGROV-1 > 100 µM | K562 > 100 µM | M14 > 100 µM | Malme-3M > 100 µM | NCI-H23 > 100 µM | SF-295 > 100 µM | SF-539 > 100 µM | SK-MEL-28 > 100 µM | SK-MEL-5 > 100 µM | SR > 100 µM | SW-620 > 100 µM | TK-10 > 100 µM | UACC-257 > 100 µM | UO-31 > 100 µM

O=C1c2ccccc2-c2cccc3ccc(Cc4ccc5ccccc5c4)c1c23
inactive: CCRF-CEM > 100 µM | HCT-116 > 100 µM | IGROV-1 > 100 µM | K562 29.4 µM | M14 > 100 µM | Malme-3M > 100 µM | NCI-H23 > 100 µM | NCI-H522 15.6 µM | RXF 393 48.2 µM | SF-295 > 100 µM | SF-539 > 100 µM | SK-MEL-28 > 100 µM | SK-MEL-5 > 100 µM | SW-620 > 100 µM | TK-10 > 100 µM | UACC-257 > 100 µM | UO-31 > 100 µM

N/N=c1\c2ccccc2c2ccc3c4ccccc4/c(=N\N)c3c12
inactive: CCRF-CEM > 100 µM | HCT-116 > 100 µM | IGROV-1 > 100 µM | K562 > 100 µM | M14 > 100 µM | Malme-3M > 100 µM | NCI-H23 > 100 µM | NCI-H522 > 100 µM | RXF 393 > 100 µM | SF-295 > 100 µM | SF-539 > 100 µM | SK-MEL-28 > 100 µM | SK-MEL-5 > 100 µM | SR 25.7 µM | SW-620 > 100 µM | UACC-257 > 100 µM | UO-31 > 100 µM

CC(=O)Nc1ccc(C(=O)N2N=C(C)/C(=C/c3cccc(O)c3)C2=O)cc1
inactive: CCRF-CEM > 100 µM | HCT-116 > 100 µM | K562 > 100 µM | M14 > 100 µM | Malme-3M > 100 µM | NCI-H23 > 100 µM | NCI-H522 > 100 µM | SF-295 > 100 µM | SF-539 > 100 µM | SK-MEL-28 > 100 µM | SK-MEL-5 > 100 µM | SW-620 > 100 µM | TK-10 > 100 µM | UACC-257 > 100 µM | UO-31 > 100 µM

COc1ccc(NC(=O)C(=O)Cc2ccc([N+](=O)[O-])c([N+](=O)[O-])c2CC(=O)C(=O)Nc2ccc(OC)cc2OC)c(OC)c1
inactive: CCRF-CEM > 100 µM | HCT-116 > 100 µM | IGROV-1 > 100 µM | K562 > 100 µM | M14 > 100 µM | Malme-3M > 100 µM | NCI-H23 > 100 µM | NCI-H522 58.6 µM | RXF 393 > 100 µM | SF-295 > 100 µM | SK-MEL-28 > 100 µM | SR > 100 µM | SW-620 > 100 µM | TK-10 > 100 µM | UACC-257 > 100 µM | UO-31 > 100 µM

C/C(=N\NC(=S)Nc1ccc(C(=O)O)cc1)c1ccccn1
inactive: CCRF-CEM 17.4 µM | HCT-116 23.5 µM | IGROV-1 31.8 µM | K562 40.1 µM | M14 15.1 µM | Malme-3M 15.5 µM | NCI-H23 36.9 µM | RXF 393 35 µM | SF-295 40.4 µM | SF-539 18.3 µM | SK-MEL-28 44 µM | SK-MEL-5 16.9 µM | SR 12.2 µM | SW-620 19.2 µM | TK-10 30.6 µM | UACC-257 25.4 µM | UO-31 11.6 µM

O=C1Cc2ccccc2N1c1c(Cl)cccc1Cl
inactive: CCRF-CEM 32.9 µM | HCT-116 45.6 µM | IGROV-1 43.4 µM | K562 21.3 µM | M14 71 µM | Malme-3M 56.8 µM | NCI-H23 52 µM | NCI-H522 24.6 µM | SF-295 38.4 µM | SF-539 81.3 µM | SK-MEL-28 54 µM | SK-MEL-5 32.8 µM | SR 25.4 µM | SW-620 38.6 µM | TK-10 98.4 µM | UACC-257 39.6 µM | UO-31 24.3 µM

Cc1cccc(NC(=O)C(=O)C(C(=O)c2ccccc2F)C2OC(=O)c3ccccc32)c1Cl (centres undefined)
inactive: CCRF-CEM 23.3 µM | HCT-116 20.3 µM | IGROV-1 56.8 µM | K562 28.6 µM | M14 43.1 µM | NCI-H23 24.2 µM | NCI-H522 22.4 µM | SF-295 36.4 µM | SF-539 18.2 µM | SK-MEL-28 35.1 µM | SK-MEL-5 64 µM | SR 26.5 µM | SW-620 42.5 µM | TK-10 63 µM | UACC-257 51.4 µM | UO-31 37.2 µM

CC1(c2ccc(F)cc2)C(C#N)C(=O)NC(=O)C1C#N (centres undefined)
inactive: CCRF-CEM > 100 µM | IGROV-1 > 100 µM | K562 > 100 µM | M14 > 100 µM | Malme-3M > 100 µM | NCI-H23 > 100 µM | NCI-H522 > 100 µM | RXF 393 60.1 µM | SF-295 > 100 µM | SF-539 > 100 µM | SK-MEL-28 > 100 µM | SK-MEL-5 > 100 µM | SW-620 > 100 µM | TK-10 > 100 µM | UACC-257 > 100 µM | UO-31 83.8 µM

CC(=O)OCc1nnn2c1C(OC(C)=O)CC2 (centres undefined)
inactive: HCT-116 > 100 µM | IGROV-1 > 100 µM | K562 > 100 µM | M14 > 100 µM | Malme-3M > 100 µM | NCI-H23 > 100 µM | NCI-H522 > 100 µM | RXF 393 > 100 µM | SF-295 > 100 µM | SF-539 > 100 µM | SK-MEL-28 > 100 µM | SK-MEL-5 > 100 µM | SR > 100 µM | SW-620 > 100 µM | TK-10 > 100 µM | UACC-257 > 100 µM | UO-31 > 100 µM

CN1C=C(C(N)=O)Cc2ccsc21
inactive: CCRF-CEM > 100 µM | HCT-116 > 100 µM | IGROV-1 > 100 µM | K562 > 100 µM | M14 > 100 µM | Malme-3M > 100 µM | NCI-H23 > 100 µM | NCI-H522 > 100 µM | RXF 393 > 100 µM | SF-295 > 100 µM | SF-539 > 100 µM | SK-MEL-28 > 100 µM | SK-MEL-5 > 100 µM | SR > 100 µM | SW-620 > 100 µM | UACC-257 > 100 µM | UO-31 > 100 µM

CCOC(=O)Nc1ccc(S(=O)(=O)OC)cc1.CCOC(=O)Nc1ccc(S(=O)(=O)OC)cc1.Cc1cn(C2CC(O)C(CO)O2)c(=O)[nH]c1=O
inactive: CCRF-CEM 87.1 µM | HCT-116 10 µM | IGROV-1 > 100 µM | K562 34.2 µM | M14 > 100 µM | Malme-3M > 100 µM | NCI-H23 > 100 µM | SF-295 > 100 µM | SF-539 > 100 µM | SK-MEL-28 > 100 µM | SK-MEL-5 > 100 µM | SW-620 19.4 µM | TK-10 > 100 µM | UACC-257 > 100 µM | UO-31 > 100 µM

O=C1NCCCC12CCCNC2=O
inactive: CCRF-CEM > 100 µM | HCT-116 > 100 µM | IGROV-1 > 100 µM | K562 > 100 µM | M14 > 100 µM | Malme-3M > 100 µM | NCI-H23 > 100 µM | NCI-H522 > 100 µM | RXF 393 > 100 µM | SF-295 > 100 µM | SF-539 > 100 µM | SK-MEL-28 > 100 µM | SK-MEL-5 > 100 µM | SR > 100 µM | SW-620 > 100 µM | UACC-257 > 100 µM | UO-31 > 100 µM

CCC1N2CCCCC2[C@@H]2c3[nH]c4ccccc4c3CCN12 (some centres undefined)
inactive: CCRF-CEM > 100 µM | HCT-116 > 100 µM | IGROV-1 > 100 µM | K562 > 100 µM | M14 > 100 µM | Malme-3M > 100 µM | NCI-H23 > 100 µM | NCI-H522 > 100 µM | RXF 393 > 100 µM | SF-295 > 100 µM | SF-539 > 100 µM | SK-MEL-28 > 100 µM | SK-MEL-5 > 100 µM | SW-620 > 100 µM | TK-10 > 100 µM | UACC-257 > 100 µM | UO-31 > 100 µM

CCOc1cccc2[s+]snc12
inactive: CCRF-CEM 62.8 µM | HCT-116 > 100 µM | IGROV-1 > 100 µM | K562 39.8 µM | M14 > 100 µM | Malme-3M > 100 µM | NCI-H23 > 10 µM | NCI-H522 27.8 µM | RXF 393 > 100 µM | SF-295 > 100 µM | SF-539 46.8 µM | SK-MEL-28 > 100 µM | SK-MEL-5 23.6 µM | SW-620 > 100 µM | TK-10 > 100 µM | UACC-257 > 100 µM | UO-31 37.3 µM

COC(=O)C1=CC2OC1(C)CCC2=O (centres undefined)
inactive: CCRF-CEM 35.1 µM | HCT-116 85.3 µM | IGROV-1 > 100 µM | K562 62.4 µM | M14 44.6 µM | Malme-3M 71.4 µM | NCI-H23 99.3 µM | NCI-H522 48.1 µM | RXF 393 > 100 µM | SF-295 > 100 µM | SF-539 > 100 µM | SK-MEL-28 > 100 µM | SR 45.9 µM | SW-620 74.6 µM | TK-10 > 100 µM | UACC-257 > 100 µM | UO-31 > 100 µM

S=P1(Oc2ccccc2)NNP2(=NP(N3CC3)(N3CC3)=NP(N3CC3)(N3CC3)=N2)NN1 (centres undefined)
inactive: CCRF-CEM 38.9 µM | HCT-116 > 100 µM | IGROV-1 > 100 µM | K562 > 100 µM | Malme-3M > 100 µM | NCI-H23 41.9 µM | NCI-H522 > 100 µM | SF-295 > 10 µM | SF-539 > 100 µM | SK-MEL-28 > 100 µM | SK-MEL-5 > 100 µM | SW-620 > 100 µM | TK-10 > 100 µM | UACC-257 > 100 µM | UO-31 > 100 µM
